Experiment [1] concerns the target T1, Lysine-specific histone demethylase 1A (Homo sapiens, UniProt O60341). In words: Binding affinity to LSD1 (unknown origin) by SPR analysis. In general terms: Surface plasmon resonance follows binding to a sensor surface in real time, without labels.
The target of experiment [2] is Voltage-gated inwardly rectifying potassium channel KCNH2 (Homo sapiens, UniProt Q12809). In words: Inhibition of human ERG expressed in CHO cells by Ionworks electrophysiology method. The class given is cell-based.
Experiment [3] deals with T1, Lysine-specific histone demethylase 1A.
Description: Inhibition of recombinant human N-terminal truncated LSD1 (151 to 852 residues) expressed in Escherichia coli using histone H3(1-21)K4(Me1) biotin peptide as substrate measured after 30 mins by TR-FRET assay
In experiment [4] the target is T2, Amine oxidase [flavin-containing] A (Homo sapiens, UniProt P21397).
T2 sequence (P21397 whole entry): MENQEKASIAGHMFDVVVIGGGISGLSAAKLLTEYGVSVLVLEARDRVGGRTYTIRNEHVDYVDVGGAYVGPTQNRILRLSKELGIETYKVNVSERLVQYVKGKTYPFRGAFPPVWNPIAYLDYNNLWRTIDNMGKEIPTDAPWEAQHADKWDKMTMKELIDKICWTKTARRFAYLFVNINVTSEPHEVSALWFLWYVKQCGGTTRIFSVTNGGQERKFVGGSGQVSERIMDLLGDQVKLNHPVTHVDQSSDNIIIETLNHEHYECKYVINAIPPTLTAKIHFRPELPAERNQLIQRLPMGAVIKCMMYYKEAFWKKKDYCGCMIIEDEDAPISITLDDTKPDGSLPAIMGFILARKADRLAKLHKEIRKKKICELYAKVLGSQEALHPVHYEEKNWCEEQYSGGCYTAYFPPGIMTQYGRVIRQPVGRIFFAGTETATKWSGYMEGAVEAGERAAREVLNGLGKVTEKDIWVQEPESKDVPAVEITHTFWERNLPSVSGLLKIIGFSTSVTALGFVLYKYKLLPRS
In words: Inhibition of recombinant human MAO-A expressed in supersomes using kynuramine as substrate by LC-MS/MS analysis.

The target in experiment [5] is T3, Amine oxidase [flavin-containing] B (Homo sapiens, UniProt P27338).
T3 sequence (P27338 whole entry): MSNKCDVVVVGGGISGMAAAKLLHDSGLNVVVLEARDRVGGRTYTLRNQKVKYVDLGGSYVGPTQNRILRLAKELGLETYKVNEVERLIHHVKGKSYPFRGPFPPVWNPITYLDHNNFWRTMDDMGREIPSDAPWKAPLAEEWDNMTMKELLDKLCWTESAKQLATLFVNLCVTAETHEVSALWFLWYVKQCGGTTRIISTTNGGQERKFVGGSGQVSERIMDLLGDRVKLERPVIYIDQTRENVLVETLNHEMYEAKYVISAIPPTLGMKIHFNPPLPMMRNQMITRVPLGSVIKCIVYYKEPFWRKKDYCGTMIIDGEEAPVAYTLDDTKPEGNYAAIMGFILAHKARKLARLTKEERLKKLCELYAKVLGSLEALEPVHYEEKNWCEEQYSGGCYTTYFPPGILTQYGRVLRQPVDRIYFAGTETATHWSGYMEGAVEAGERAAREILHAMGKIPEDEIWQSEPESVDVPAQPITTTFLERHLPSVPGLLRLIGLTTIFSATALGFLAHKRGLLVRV
In words: Inhibition of recombinant human MAO-B expressed in supersomes using kynuramine as substrate by LC-MS/MS analysis.

Sequence of Voltage-gated inwardly rectifying potassium channel KCNH2 (Q12809 whole entry): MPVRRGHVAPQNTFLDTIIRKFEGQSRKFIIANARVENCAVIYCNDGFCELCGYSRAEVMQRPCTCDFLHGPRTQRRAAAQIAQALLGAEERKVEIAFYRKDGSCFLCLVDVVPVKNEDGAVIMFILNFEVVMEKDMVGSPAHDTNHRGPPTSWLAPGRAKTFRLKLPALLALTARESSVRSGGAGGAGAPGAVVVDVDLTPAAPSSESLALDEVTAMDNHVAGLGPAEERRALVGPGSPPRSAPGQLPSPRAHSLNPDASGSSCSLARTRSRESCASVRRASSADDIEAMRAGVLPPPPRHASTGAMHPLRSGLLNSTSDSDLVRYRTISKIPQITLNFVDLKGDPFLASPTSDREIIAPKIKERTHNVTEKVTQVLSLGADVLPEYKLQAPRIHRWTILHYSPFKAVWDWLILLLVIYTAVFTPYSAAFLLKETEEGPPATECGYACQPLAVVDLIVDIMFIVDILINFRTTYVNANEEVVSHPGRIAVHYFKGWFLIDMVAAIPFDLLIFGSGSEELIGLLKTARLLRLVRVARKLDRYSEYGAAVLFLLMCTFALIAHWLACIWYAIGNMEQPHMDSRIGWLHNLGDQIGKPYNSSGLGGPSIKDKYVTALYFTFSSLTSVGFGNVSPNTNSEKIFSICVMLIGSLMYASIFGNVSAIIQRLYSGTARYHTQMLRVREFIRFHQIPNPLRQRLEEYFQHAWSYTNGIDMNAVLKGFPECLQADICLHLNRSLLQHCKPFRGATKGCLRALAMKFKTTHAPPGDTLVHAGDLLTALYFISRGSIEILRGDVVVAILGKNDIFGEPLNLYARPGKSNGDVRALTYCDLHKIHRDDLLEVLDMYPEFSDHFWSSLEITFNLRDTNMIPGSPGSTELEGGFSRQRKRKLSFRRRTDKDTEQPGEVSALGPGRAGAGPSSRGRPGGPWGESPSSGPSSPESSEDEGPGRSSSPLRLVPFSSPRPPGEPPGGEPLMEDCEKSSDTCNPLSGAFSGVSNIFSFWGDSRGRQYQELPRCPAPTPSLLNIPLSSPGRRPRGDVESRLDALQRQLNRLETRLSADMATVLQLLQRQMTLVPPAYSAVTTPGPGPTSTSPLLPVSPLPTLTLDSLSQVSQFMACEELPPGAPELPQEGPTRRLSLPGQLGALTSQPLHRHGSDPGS

Take `Cc1ccc(-c2ncc(OC[C@@H]3CCNC3)cc2-c2ccc(C#N)cc2)cc1`: the Kd in experiment [1] amounted to 8 nM. Also, the IC50 in experiment [2] came to 3.2 µM; in experiment [3] it was 41 nM.

For the compound `Cc1ccc([C@@H]2CN(C(=O)[C@H]3CC[C@H](CN)CC3)C[C@H]2c2ccc(C#N)cc2)cc1`, the IC50 in experiment [4] was above 25 µM; in experiment [5], above 25 µM; in experiment [2], 12.1 µM.

What is called Kd is a measure of binding affinity in units of concentration. Low readings indicate tighter binding, high ones weaker binding. What is called IC50 is the point on the concentration scale where inhibition reaches its midpoint.

The values are drawn from ChEMBL document CHEMBL4043241, “Development and evaluation of 4-(pyrrolidin-3-yl)benzonitrile derivatives as inhibitors of lysine specific demethylase 1” (Bioorg Med Chem Lett, 2017).
